# What was measured:
# [1] = read-out: KD for zinc; cited from earlier work
# cultured DRG neurones [2] = assay: Voltage clamp recording of poly-APS evoked inward/holding current in DRG neurones; type: cell-based, rat; conditions: 1.5 mM zinc continually present, before poly-APS, n=6
# Protocol: (§1) Primary cultures of dorsal root ganglion (DRG) neurones were prepared following enzymatic and mechanical dissociation of dorsal root ganglia from decapitated 2-day old Sprague Dawley rats. The sensory neurones were plated on laminin-polyornithine coated coverslips and bathed in F14 culture medium (Imperial Laboratories) supplemented with 10% horse serum (Gibco), penicillin (5000 IU/ml), streptomycin ([…]), NaHCO3 (14 mM) and nerve growth factor (20 ng/ml). The cultures were maintained for up to 2 weeks at 37° C. in humidified air with 5% CO2, and re-fed with fresh culture medium every 5-7 days.
# All experiments were conducted at room temperature (approximately 23° C.). The whole-cell recording technique was used to study the actions of poly-APS and halitoxin preparations on membrane potential, input resistance (evaluated from 100-300 ms electrotonic potentials evoked by −30 to −200 pA current commands) and holding current. Whole cell recordings were made using an Axoclamp-2A switching voltage clamp amplifier operated at a sampling rate of 15-20 kHz. […] Poly-APS and halitoxin were applied to the extracellular environment by low pressure ejection via a blunt micropipette (tip diameter about […]) positioned approximately […] from the neurone being recorded. […]
# HEK293 cells = assay: fura-2 intracellular Ca2+ imaging in HEK293 cells; type: cell-based, human; conditions: poly-APS 0.5 μg/ml, n=11
# Protocol: HEK293 cells (human embryonic kidney cell line) were maintained in Dulbecco's modified Eagle's medium (DMEM). In preparation for transfection experiments cells were seeded 24 hours prior to experimentation at a density of 5×10^5 cells per well in six well plates, the same seeding density was used for confocal and electrophysiology/calcium imaging experiments in 35 mm culture dishes.
# Cultured DRG neurones and HEK 293 cells were incubated for 1 hour in NaCl-based extracellular solution containing 10 μM fura-2AM (Sigma, 1 mM stock in dimethylformamide). The cells were then washed for 20 minutes to remove the extracellular fura-2AM and to allow cytoplasmic de-esterification of the Ca^2+ sensitive fluorescent dye. The cells were constantly perfused (1-2 ml/min) and viewed under an inverted Olympus BX50W1 microscope with a KAI-1001 S/N 5B7890-4201 Olympus camera attached. The fluorescence ratiometric images from the data obtained at excitation wavelengths of 340 nm and 380 nm were viewed and analysed using OraCal pro, Merlin morphometry temporal mode (Life Sciences resources, version 1.20).
# cultured DRG neurones [3] = assay: Whole-cell recording of membrane potential and input resistance in cultured DRG neurones; type: cell-based, rat; conditions: 1.5 mM zinc, before poly-APS, n=7
# Protocol: as §1
# All experiments were conducted at room temperature (approximately 23° C.). The whole-cell recording technique was used to study the actions of poly-APS and halitoxin preparations on membrane potential, input resistance (evaluated from 100-300 ms electrotonic potentials evoked by −30 to −200 pA current commands) and holding current. […] Poly-APS and halitoxin were applied to the extracellular environment by low pressure ejection via a blunt micropipette (tip diameter about […]) positioned approximately […] from the neurone being recorded. […]
# The electrophysiological data were stored on digital audio tape (DAT) using a DTR-1200 DAT recorder (Biologic) and subsequently analysed using Cambridge Electronic Design voltage clamp software (version 6). […]
Compound,Kd [1] [nM],resting holding current at −90 mV with zinc (cultured DRG neurones [2]) [pA],effect of zinc on rise in intracellular Ca2+ produced by poly-APS (HEK293 cells),resting membrane potential in the presence of zinc (cultured DRG neurones [3]) [mV]
Cc1ccc(N(CC(=O)O)CC(=O)O)c(OCCOc2cc3cc(-c4ncc(C(=O)O)o4)oc3cc2N(CC(=O)O)CC(=O)O)c1 [fura-2],~2,,,
[Zn+2] [zinc],,−120±30,attenuated,−47±7

# From patent US20070141707A1, “Sponge toxins” (priority 2003, published 2007)
